Data as given in patent publication US20230340061A1, “PEPTIDES AND METHODS FOR THE TREATMENT OF MULTIPLE SCLEROSIS” (IMCYSE SA, priority 2020, published 2023).

Columns and labels:
[1] = Oxidoreductase activity, fluorescent assay with FITC labelled peptides; assay type: biochemical; settings: reduction of self-quenched FITC labelled peptides, fluorescence
Text: The peptides of the invention comprise an MHC class II T-cell epitope or NKT cell epitope of MOG with a potential to trigger an immune reaction, and a modified oxidoreductase motif. The reducing activity of the motif sequence in the peptide can be assayed for its ability to reduce a sulfhydryl group such as in the insulin solubility assay wherein the solubility of insulin is altered upon reduction, or with a fluorescence-labelled substrate such as insulin. An example of such assay uses a fluorescent peptide and is described in Tomazzolli et al. (2006) Anal. Biochem. 350, 105-112. Two peptides with a FITC label become self-quenching when they covalently attached to each other via a disulfide bridge. Upon reduction by a peptide in accordance with the present invention, the reduced individual peptides become fluorescent again.
The oxidoreductase activity of the immunogenic peptides is determined using a fluorescent assay described in Tomazzolli et al. (2006) Anal. Biochem. 350, 105-112. Two peptides with a FITC label become self-quenching when they form a covalent disulfide bond. Upon reduction by a peptide in accordance with the present invention, the reduced individual FITC labelled peptides emit fluorescence again. The activity is expressed as the mean of duplicates. The results are expressed in Relative Fluorescent Units (RFU). […]

[2] = tested on: CD4+ T cells of patients with multiple sclerosis; assay: Generation of antigen specific CD4+ T cells, CD154 (CD40L) expression by flow cytometry; assay type: cell-based, human; settings: for generation of peptide-specific CD4+ T cell lines from MS patients: naive CD4+ T cells co-cultured with autologous mDC or LCL in presence of peptide; for frequency of effector cells (CD3+CD4+CD154+): patients' CD4+ cell lines, overnight co-culture with autologous LCL with peptide vs no peptide; for specific induction of effector cells (CD3+CD4+CD154+): overnight co-culture
Protocol: PBMCs were isolated from blood samples of patients with multiple sclerosis treated by dimethyl fumarate (DMF) on Lymphoprep density gradients.
(§1) CD14+ monocytes were isolated from these PBMCs by performing positive immunomagnetic separation with CD14 microbeads (Miltenyi Biotec, 130-050-201) according to the supplier recommendations. CD14+ monocytes were cultured for six days and maturated to generate autologous dendritic cells (mDC). CD19+ B cells were isolated from the CD14- PBMCs fraction by performing positive immunomagnetic separation with CD19 microbeads (Miltenyi Biotec, 130-050-301) according to the supplier recommendations. CD19+ B cells were cultured and immortalized with EBV to generate autologous lymphoblastoid cell lines (LCL).
(§2) Naïve CD4+ T cells were also purified from the CD14- PBMCs fraction by performing negative immunomagnetic separation with naïve CD4+ T cell isolation kit (Miltenyi Biotec, 130-094-131) according to the supplier recommendations. Naïve CD4+ T cells were co-cultured with autologous mDC or LCL in the presence of P2 and P4 peptides. The CD4+ T cells were re-stimulated periodically, about every 10-12 days.
(§3) The ability of the peptides to generate antigen specific CD4+ T cells was evaluated by flow cytometry analysis of the TCR induced surface activation marker CD154 (CD40L) expression after overnight co-culture at resting state with autologous LCL without (no peptide) or with the peptides (P2 or P4). The surface expression of the lytic marker Fas ligand (CD178) was also evaluated by flow cytometry analysis after overnight co-culture at resting state with autologous LCL without (no peptide) or with the peptide (P4).

[3] = tested on: CD4+ T cells of patients with multiple sclerosis; assay: Cytokine secretion in CD4+ T cell culture supernatants (LEGENDplex Human Th Panel); assay type: cell-based
Text: as §2
The ability of the peptides to induce cytokines secretion in CD4+ T cells culture supernatants was evaluated by flow cytometry analysis after overnight co-culture at resting state with autologous mDC without (no peptide) or with the peptides (P2 or P4). Supernatants were analyzed with the LEGENDplex Human Th Panel (13-plex) (BioLegend, 740721) according to the supplier recommendations.

[4] = tested on: CD4+ T cells of patients with multiple sclerosis; assay: Surface expression of lytic marker Fas ligand (CD178) by flow cytometry; assay type: cell-based, human; settings: CD4+ cell lines of patients MS017 (S9) and MS020 (S10)
Protocol: as §2, §3

autologous LCL = assay: Cytolytic activity: apoptosis of autologous LCL (Annexin V); assay type: cell-based, human; settings: peptide-loaded labelled autologous LCL co-cultured with P4-specific CD4+ T cell lines from patients MS017 (S7), MS026 (S12), MS028 (S11) and MS029 (S9)
Protocol: as §1
The cytolytic activity of the antigen specific CD4+ T cells was evaluated by quantifying the apoptosis induced on LCL used as antigen presenting cells. Fluorescently labelled autologous LCL, loaded or not with the peptide (P4), were overnight co-cultured at resting state with specific CD4+ T cells, and LCL apoptosis was quantified by flow cytometry through Annexin V staining. Considering the apoptosis percentage of unloaded LCL, used as control, the percentage of specific apoptosis was calculated as follows

[5] = tested on: Experimental Auto-Immune Encephalomyelitis (EAE); assay: Therapeutic administration in MOG35-55-induced EAE; assay type: in vivo; settings: 30 μg s.c. with alum, days 4, 9, 14, 19, vs Saline group
Protocol: The study used a total of 48 female C57BL/6 mice (Taconic Biosciences, 9 weeks old on Day 0). Mice were acclimated for 7 days prior to the first injection. Mice were assigned to groups in a balanced manner to achieve similar average weight across the groups at the start of the study.
Dosing of all mice was performed once on each of the days indicated in Table 2, s.c., at a volume of 0.05 mL/site, each mouse receiving injection at two sites, for a total of 0.1 mL/mouse/dosing day. IMCY-0189 or P4 peptide total dose was 30 μg per administration.
Lyophilized immunogenic peptide IMCY-0189 with the sequence […] (SEQ ID NO: 260), comprising an oxidoreductase motif HCPYC (SEQ ID NO: 24), a linker GW, a murine Myelin Oligodendrocyte Glycoprotein (MOG35-55) MHCII T cell epitope […] (SEQ ID NO: 261) and a flanking sequence HLYR (SEQ ID NO: 262) (Smart Bioscience) was solubilized immediately before use. Lyophilized IMCY-0189 was thawed at room temperature for 10 minutes, resuspended in Na Acetate buffer 50 mM NaCl 0.9% pH 5.4 and incubated at room temperature for 10 minutes. Reconstituted peptide was then mixed with Imject™ Alum Adjuvant before injection.
Lyophilized immunogenic peptide P4 with the sequence […] (SEQ ID NO: 27), comprising an oxidoreductase motif KHCPYC (SEQ ID NO: 50), a linker VRY, a human Myelin Oligodendrocyte Glycoprotein (MOG201-212) MHCII T cell epitope […] (SEQ ID NO: 2) and a flanking sequence TLFKK (SEQ ID NO: 263) (Smart Bioscience) was solubilized immediately before use. Lyophilized P4 was thawed at room temperature for 10 minutes, resuspended in Na Acetate buffer 50 mM NaCl 0.9% pH 5.4 and incubated at room temperature for 10 minutes. Reconstituted peptide was then mixed with Imject™ Alum Adjuvant before injection.
EAE was induced in all mice as follows: • Day 0, Hour 0—Immunization with a peptide corresponding to the amino acids 35-55 of MOG (MOG35-55)/CFA • Day 0, Hour 2—Injection of pertussis toxin • Day 1, Hour 0—2nd injection of pertussis toxin (24 hours after initial immunization).
Mice were injected subcutaneously at two sites in the back with the emulsion component (containing MOG35-55) of Hooke Kit™ MOG35-55/CFA Emulsion PTX, catalog number EK-2110 (lot #131, Hooke Laboratories, Lawrence MA). One site of injection was in the area of upper back, approximately 1 cm caudal of the neck line. The second site was in the area of lower back, approximately 2 cm cranial of the base of the tail. The injection volume was 0.1 mL at each site. Each mouse received 200 μg of MOG35-55.
Within 2 hours of the injection of emulsion, and then again 24 hours after the injection of emulsion, the pertussis toxin component of the kit was administered intraperitoneally. The pertussis toxin (lot #1008, Hooke Laboratories) was administered at 90 ng/dose for both injections and the volume of each injection was 0.1 mL.
Animals were scored daily starting from Day 7 to the end of the study. Scoring was performed blind, by a person unaware of both treatment and of previous scores for each mouse. In-between scores were assigned when the clinical signs fell between two above defined scores.
On Day 28, blood was collected from all mice into gel clot activator tubes and allowed to clot at room temperature for ˜30 minutes. Blood is then centrifuged at ˜10000 g for 5 minutes. Serum was transferred into Eppendorf tubes and stored at −80° C. until shipment to Quanterix™. Serum Neurofilament light (NF-L) protein levels were quantified using Simoa® NF-light Advantage kit, a digital immunoassay for the quantitative determination of NF-L in serum, plasma and CSF. The used antibodies (Uman Diagnostics, Umea Sweden) also cross react with murine, bovine and macaque NF-L epitopes and as such, this assay can be used for research with these species. All samples were tested in duplicate at a dilution factor of 40×. […]

[6] = target: T1, soluble HLA-DRB1*04:01 human MHC II protein (human); assay: soluble-phase competition vs biotin-tagged control peptide, Eu3+-streptavidin fluorescence (FIG. 3)
T1 construct: Soluble protein purchased from the Benaroya Research Institute; also called HLA-DR4; DR4
Protocol: (§4) To test the binding of the immunogenic peptides to MHCII molecules, a soluble phase competition assay is performed. […] As binding approaches its equilibrium (18h), biotin-labelled peptide/MHC II complexes are captured, separated from unbound reagents, and quantitatively detected by time-resolved fluorescence (Eu³⁺ streptavidin, Perkin Elmer, Brussels, Belgium). […] Data are processed and plotted to ascertain dose-dependent binding properties of test peptides. All the tests are performed in triplicates.

[7] = target: T2, soluble HLA-DRB1*03:01 human MHC II protein (human); assay: soluble-phase competition vs biotin-labelled control peptide, Eu3+-streptavidin time-resolved fluorescence
T2 construct: Soluble protein purchased from the Benaroya Research Institute; also called HLA-DR3; DR3

[8] = target: T2, soluble HLA-DRB1*03:01 human MHC II …; assay: soluble-phase competition vs biotin-tagged control peptide, Eu3+-streptavidin fluorescence (FIG. 2)
Protocol: as §4

[9] = P4-specific CD4+ cell lines of patients MS024 (S20), MS017 (S9), MS026 (S13), MS028 (S11) and MS029 (S9)
[10] = culture supernatant of MS017 (S12) and MS024 (S20) CD4+ cell lines, P4 vs S-WT epitope peptide

With HCHGCVRYFLRVPCWKI [P6] the oxidoreductase activity [1] was “displayed oxidoreductase activity”.

With HCPYCGG-FLRVPCWKI [P7] the oxidoreductase activity [1] was “displayed oxidoreductase activity”.

For HCPYCVRYFLRVPSWKITLF [P2], the “generation of peptide-specific CD4+ T cell lines from MS patients” value [2] was “able to generate P2-specific CD4+ T cell lines from four different MS patients”, the “frequency of effector cells (CD3+CD4+CD154+)” value [2] was “high frequency” and the “specific secretion of cytokines (IL-5 and IL-13)” value ([3]; culture supernatant of MS026 CD4+ cell line (S11)) was “specific secretion”.

For KHCPYCVRYFLRVPSWKITLFKK [P4], the “specific induction of effector cells (CD3+CD4+CD154+)” value (shortened to “specific induction of effector cells”) ([2]; P4-specific CD4+ cell lines of patients MS017 (S14) and MS026 (S13)) was “specific induction”, the “specific induction of effector cells” value [2, 9] was “specific induction” and the “generation of peptide-specific CD4+ T cell lines from MS patients” value [2] was “able to generate P4-specific CD4+ T cell lines from eight different MS patients”. For the same molecule, the “frequency of effector cells (CD3+CD4+CD154+)” value [2] was “high frequency”, the “effector cells expressing the lytic marker Fas ligand (CD3+CD4+CD154+FasL+)” value [4] was “specific increase” and the “specific secretion of cytokine (IL-5)” value [3, 10] was “specific secretion”. For the same molecule, the “specific secretion of cytokine (IL-5)” value ([3]; culture supernatant of MS017 (S15) CD4+ cell line, P4 vs C-WT epitope peptides) was “specific secretion”, the “specific secretion of cytokine (IL-5)” value ([3]; culture supernatant of MS017 (S15), MS024 (S20) and MS026 (S14) CD4+ cell lines) was “specific secretion” and the “percentage of specific LCL apoptosis” value (autologous LCL) was “increase”. The “AUC (area under the curve) of EAE scores” value [5] was “statistically significant reduced”, the “MMS (mean maximal score)” value [5] was “statistically significant reduced” and the disease onset [5] was “postponed”. For the same molecule, the “level of demyelination (anti-MBP stained spinal cord sections)” value [5] was “reduced level”, the “level of inflammation (inflammatory foci, H&E stained spinal cord sections)” value [5] was “reduced level” and the “serum NF-L levels” value ([5]; Day 28) was “statistically significant reduced”. For the same molecule, the end score ([5]; EAE score 0-5) was “reduced”.

With “KLHRTFDPHFLRVPSWKITLFK [short S-WT, reference compound]” the “specific induction of effector cells” value [2, 9] was “specific induction”, the “specific secretion of cytokine (IL-5)” value [3, 10] was “specific secretion” and the “percentage of specific LCL apoptosis” value (autologous LCL) was “increase”.

B1: P2 peptide HCPYCVRYFLRVPSWKITLF (peptide)
peptide: HCPYCVRYFLRVPSWKITLF
notes: Synthetic
B1: binds [6]; binds [7].

B2: P3 peptide HCPYCVRYFLRVPCWKITLF (peptide)
peptide: HCPYCVRYFLRVPCWKITLF
notes: Synthetic
B2: binds [8]; binds [6].
